According to PMC12040969, “Design, synthesis, in silico studies, and apoptotic antiproliferative activity of novel thiazole-2-acetamide derivatives as tubulin polymerization inhibitors” (Frontiers in Chemistry, 2025):

How the values were obtained:
breast - MCF-7 = experiment: Antiproliferative assay (MTT) MCF-7; conditions: for IC50: read-out: Antiproliferative activity IC50 ± SEM (µM) MCF-7, MCF-7, MTT
colon - HCT-116 = experiment: Antiproliferative assay (MTT) HCT-116; conditions: for IC50: read-out: Antiproliferative activity IC50 ± SEM (µM) HCT-116, HCT-116, MTT
[1] = Cell viability assay (MTT), normal cells; format: cell-based; conditions: human, MCF-10A normal mammary gland epithelial cells, four-day incubation
Procedure: The impact of novel compounds 10a-o and 13a-e on cell viability was examined using the MCF-10A (human mammary gland epithelial) normal cell line. The MTT test was employed to assess the cell viability of the novel compounds after a four-day incubation with MCF-10A cells ([El-Sherief et al., 2019]; [Ramadan et al., 2020]).
The effects of compounds 10a-o and 13a-e on cell viability were assessed using the human mammary gland epithelial normal cell line (MCF-10A). The MTT assay assessed the cell viability of compounds 10a-o and 13a-e following a four-day incubation with MCF-10A cells ([El-Sherief et al., 2019]; [Ramadan et al., 2020]). Check Supplementary Appendix A for additional information.
4.2. Biological evaluation
4.2.1 Cell Viability assay (MTT assay)
MTT assay was performed to investigate the effect of the synthesized compounds on mammary epithelial cells (MCF-10A). The cells were propagated in medium consisting of Ham's F-12 medium/ Dulbecco's modified Eagle's medium (DMEM) (1:1) supplemented with 10% foetal calf serum, 2 mM glutamine, insulin (10 μg/mL), hydrocortisone (500 ng/mL) and epidermal growth factor (20 ng/mL). Trypsin ethylenediamine tetra acetic acid (EDTA) was used to passage the cells after every 2-3 days. 96-well flat-bottomed cell culture plates were used to seed the cells at a density of 10^4 cells mL-1. The medium was aspirated from all the wells of culture plates after 24 h followed by the addition of synthesized compounds (in 200 μL medium to yield a final concentration of 0.1% (v/v) dimethyl sulfoxide) into individual wells of the plates.
Four wells were designated to a single compound. The plates were allowed to incubate at 37°C for 96 h. Afterwards, the medium was aspirated and 3-[4,5-dimethylthiazol-2-yl]-2,5-diphenyltetrazolium bromide (MTT) (0.4 mg/mL) in medium was added to each well and subsequently incubated for 3 h. The medium was aspirated and 150 μL dimethyl sulfoxide (DMSO) was added to each well. The plates were vortexed followed by the measurement of absorbance at 540 nm on a microplate reader. The results were presented as inhibition (%) of proliferation in contrast to controls comprising 0.1%

pancreatic - MDAMB-231 = experiment: Antiproliferative assay (MTT) MDAMB-231; conditions: read-out: Antiproliferative activity IC50 ± SEM (µM) MDAMB-231; MDAMB-231, MTT
- MDAMB-231 = experiment: Antiproliferative assay (MTT) MDAMB-231
tubulin = experiment: Tubulin polymerization inhibition assay (Cytoskeleton kit);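 on all read-outs here: Cell-free tubulin polymerization read by fluorescent reporter enhancement over a 30 min reaction, with the compound-free kit control taken as 100% activity and inhibition relative to it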; conditions: for Tub %inh / Tub. enzyme inhibition assay %inhibition: 30 min; for Tub %inh: YB-EGY run; for Tub K.Activity: EC = 120, YB-EGY run; for IC50: read-out: Tubulin inhibition IC50 ± SEM, triplicate for each tested concentration; for Tub. enzyme inhibition assay %inhibition: codes 522-537 run; for Tub. enzyme inhibition assay K. Activity: control = 120, codes 522-537 run
[2] = tested on: four human cancer cell lines (HCT-116, PC-3, MCF-7, MDAMB-231); experiment: Antiproliferative assay, mean of four cell lines (GI50); conditions: for Reduced potency compared to doxorubicin (GI50) / Reduced potency compared to sorafenib (GI50): GI50 ratio; for IC50: Homo sapiens, read-out: GI50 (average IC50)
prostatic - PC-3 = experiment: Antiproliferative assay (MTT) PC-3; conditions: for IC50: read-out: Antiproliferative activity IC50 ± SEM (µM) PC-3, PC-3, MTT

With Cc1nc(SCC(=O)Nc2nc(-c3ccc(Cl)cc3)cs2)sc1C(=O)/C=C/c1ccc(F)cc1 [Compound 10h, (E)-N-(4-(4-chlorophenyl)thiazol-2-yl)-2-((5-(3-(4-fluorophenyl)acryloyl)-4-methylthiazol-2-yl)thio)acetamide] the “Average of Relative viability of cells (%)” value (breast - MCF-7; MCF-7, 1.56 µM) was 100%, the “Average of Relative viability of cells (%)” value (breast - MCF-7; MCF-7, 3.125 µM) was 94.8% and the “Average of Relative viability of cells (%)” value (breast - MCF-7; MCF-7, 6.25 µM) was 76.5%. For the same compound, the “Average of Relative viability of cells (%)” value (breast - MCF-7; MCF-7, 12.5 µM) was 53.9%, the “Average of Relative viability of cells (%)” value (breast - MCF-7; MCF-7, 25 µM) was 50.2% and the “Average of Relative viability of cells (%)” value (breast - MCF-7; MCF-7, 50 µM) was 37.1%. The “Average of Relative viability of cells (%)” value (breast - MCF-7; MCF-7, 100 µM) was 23.6%, the IC50 (breast - MCF-7) was 24 ± 1.7 µM and the “Average of Relative viability of cells (%)” value (colon - HCT-116; HCT-116, 1.56 µM) was 100%. For the same compound, the “Average of Relative viability of cells (%)” value (colon - HCT-116; HCT-116, 3.125 µM) was 97.6%, the “Average of Relative viability of cells (%)” value (colon - HCT-116; HCT-116, 6.25 µM) was 79.5% and the “Average of Relative viability of cells (%)” value (colon - HCT-116; HCT-116, 12.5 µM) was 69.3%. The “Average of Relative viability of cells (%)” value (colon - HCT-116; HCT-116, 25 µM) was 52.8%, the “Average of Relative viability of cells (%)” value (colon - HCT-116; HCT-116, 50 µM) was 39.4% and the “Average of Relative viability of cells (%)” value (colon - HCT-116; HCT-116, 100 µM) was 20.2%. It also gave an IC50 (colon - HCT-116) of 29 ± 1.9 µM, a viability at 96 h, 50 µM [1] of 85% and an IC50 (pancreatic - MDAMB-231) of 15 ± 1.3 µM. For the same compound, the “Average of Relative viability of cells (%)” value (- MDAMB-231; MDAMB-231, 1.56 µM) was 100%, the “Average of Relative viability of cells (%)” value (- MDAMB-231; MDAMB-231, 3.125 µM) was 85.7% and the “Average of Relative viability of cells (%)” value (- MDAMB-231; MDAMB-231, 6.25 µM) was 68.5%. For the same compound, the “Average of Relative viability of cells (%)” value (- MDAMB-231; MDAMB-231, 12.5 µM) was 47.4%, the “Average of Relative viability of cells (%)” value (- MDAMB-231; MDAMB-231, 25 µM) was 37.1% and the “Average of Relative viability of cells (%)” value (- MDAMB-231; MDAMB-231, 50 µM) was 26.7%. For the same compound, the “Average of Relative viability of cells (%)” value (- MDAMB-231; MDAMB-231, 100 µM) was 21.6%, the Tub %inh (tubulin; conc 0.1 (unit not given)) was 9.85% and the “Tub K.Activity” value (tubulin; conc 0.1 (unit not given)) was 108.18. For the same compound, the Tub %inh (tubulin; conc 1 (unit not given)) was 26.6%, the “Tub K.Activity” value (tubulin; conc 1 (unit not given)) was 88.132 and the Tub %inh (tubulin; conc 10 (unit not given)) was 44.8%. For the same compound, the “Tub K.Activity” value (tubulin; conc 10 (unit not given)) was 66.269, the Tub %inh (tubulin; conc 50 (unit not given)) was 65.5% and the “Tub K.Activity” value (tubulin; conc 50 (unit not given)) was 41.405. For the same compound, the Tub %inh (tubulin; conc 100 (unit not given)) was 84.5%, the “Tub K.Activity” value (tubulin; conc 100 (unit not given)) was 18.607 and the IC50 (tubulin) was 7.95 ± 0.24 µM. The “Reduced potency compared to doxorubicin (GI50)” value [2] was “at least 2.5 fold”, the “Reduced potency compared to sorafenib (GI50)” value [2] was no less than 1.5 fold and the IC50 [2] was 32 µM. For the same compound, the “Average of Relative viability of cells (%)” value (prostatic - PC-3; PC-3, 1.56 µM) was 100%, the “Average of Relative viability of cells (%)” value (prostatic - PC-3; PC-3, 3.125 µM) was 100% and the “Average of Relative viability of cells (%)” value (prostatic - PC-3; PC-3, 6.25 µM) was 100%. The “Average of Relative viability of cells (%)” value (prostatic - PC-3; PC-3, 12.5 µM) was 93.5%, the “Average of Relative viability of cells (%)” value (prostatic - PC-3; PC-3, 25 µM) was 72.4% and the “Average of Relative viability of cells (%)” value (prostatic - PC-3; PC-3, 50 µM) was 55.8%. The “Average of Relative viability of cells (%)” value (prostatic - PC-3; PC-3, 100 µM) was 36.5% and the IC50 (prostatic - PC-3) was 61 ± 3.5 µM.
For Cc1ccc(-c2csc(NC(=O)CSc3nc(C)c(C(=O)/C=C/c4ccc(F)cc4)s3)n2)cc1 [Compound 10m, (E)-2-((5-(3-(4-fluorophenyl)acryloyl)-4-methylthiazol-2-yl)thio)-N-(4-(p-tolyl)thiazol-2-yl)acetamide], the “Average of Relative viability of cells (%)” value (breast - MCF-7; MCF-7, 1.56 µM) was 100%, the “Average of Relative viability of cells (%)” value (breast - MCF-7; MCF-7, 3.125 µM) was 91.6% and the “Average of Relative viability of cells (%)” value (breast - MCF-7; MCF-7, 6.25 µM) was 72.7%. For the same compound, the “Average of Relative viability of cells (%)” value (breast - MCF-7; MCF-7, 12.5 µM) was 53.5%, the “Average of Relative viability of cells (%)” value (breast - MCF-7; MCF-7, 25 µM) was 37.2% and the “Average of Relative viability of cells (%)” value (breast - MCF-7; MCF-7, 50 µM) was 28.4%. The “Average of Relative viability of cells (%)” value (breast - MCF-7; MCF-7, 100 µM) was 22.3%, the IC50 (breast - MCF-7) was 18 ± 1.4 µM and the “Average of Relative viability of cells (%)” value (colon - HCT-116; HCT-116, 1.56 µM) was 100%. For the same compound, the “Average of Relative viability of cells (%)” value (colon - HCT-116; HCT-116, 3.125 µM) was 99.8%, the “Average of Relative viability of cells (%)” value (colon - HCT-116; HCT-116, 6.25 µM) was 87.4% and the “Average of Relative viability of cells (%)” value (colon - HCT-116; HCT-116, 12.5 µM) was 67.3%. For the same compound, the “Average of Relative viability of cells (%)” value (colon - HCT-116; HCT-116, 25 µM) was 54.1%, the “Average of Relative viability of cells (%)” value (colon - HCT-116; HCT-116, 50 µM) was 43.7% and the “Average of Relative viability of cells (%)” value (colon - HCT-116; HCT-116, 100 µM) was 28.4%. The IC50 (colon - HCT-116) was 35 ± 2.2 µM, the viability at 96 h, 50 µM [1] was 87% and the IC50 (pancreatic - MDAMB-231) was 20 ± 1.6 µM. The “Average of Relative viability of cells (%)” value (- MDAMB-231; MDAMB-231, 1.56 µM) was 100%, the “Average of Relative viability of cells (%)” value (- MDAMB-231; MDAMB-231, 3.125 µM) was 87.1% and the “Average of Relative viability of cells (%)” value (- MDAMB-231; MDAMB-231, 6.25 µM) was 68.5%. For the same compound, the “Average of Relative viability of cells (%)” value (- MDAMB-231; MDAMB-231, 12.5 µM) was 55.2%, the “Average of Relative viability of cells (%)” value (- MDAMB-231; MDAMB-231, 25 µM) was 43.7% and the “Average of Relative viability of cells (%)” value (- MDAMB-231; MDAMB-231, 50 µM) was 32.3%. The “Average of Relative viability of cells (%)” value (- MDAMB-231; MDAMB-231, 100 µM) was 24.8%, the “Tub. enzyme inhibition assay %inhibition” value (tubulin; conc 0.01 (unit not given)) was 5.97% and the “Tub. enzyme inhibition assay K. Activity” value (tubulin; conc 0.01 (unit not given)) was 112.84. The “Tub. enzyme inhibition assay %inhibition” value (tubulin; conc 0.1 (unit not given)) was 16.8%, the “Tub. enzyme inhibition assay K. Activity” value (tubulin; conc 0.1 (unit not given)) was 99.836 and the “Tub. enzyme inhibition assay %inhibition” value (tubulin; conc 1 (unit not given)) was 30%. For the same compound, the “Tub. enzyme inhibition assay K. Activity” value (tubulin; conc 1 (unit not given)) was 84.045, the “Tub. enzyme inhibition assay %inhibition” value (tubulin; conc 10 (unit not given)) was 58% and the “Tub. enzyme inhibition assay K. Activity” value (tubulin; conc 10 (unit not given)) was 50.371. The “Tub. enzyme inhibition assay %inhibition” value (tubulin; conc 100 (unit not given)) was 81.2%, the “Tub. enzyme inhibition assay K. Activity” value (tubulin; conc 100 (unit not given)) was 22.611 and the IC50 (tubulin) was 7.92 ± 0.29 µM. For the same compound, the “Tub. (IC50) IC50±SD” value (tubulin; supplement raw data, lab codes) was 4.039 ± 0.15 µg/mL, the “Reduced potency compared to doxorubicin (GI50)” value [2] was “at least 2.5 fold” and the “Reduced potency compared to sorafenib (GI50)” value [2] was no less than 1.5 fold. For the same compound, the IC50 [2] was 29 µM, the “Average of Relative viability of cells (%)” value (prostatic - PC-3; PC-3, 1.56 µM) was 100% and the “Average of Relative viability of cells (%)” value (prostatic - PC-3; PC-3, 3.125 µM) was 98.5%. For the same compound, the “Average of Relative viability of cells (%)” value (prostatic - PC-3; PC-3, 6.25 µM) was 84.1%, the “Average of Relative viability of cells (%)” value (prostatic - PC-3; PC-3, 12.5 µM) was 70.2% and the “Average of Relative viability of cells (%)” value (prostatic - PC-3; PC-3, 25 µM) was 57.4%. For the same compound, the “Average of Relative viability of cells (%)” value (prostatic - PC-3; PC-3, 50 µM) was 46.7%, the “Average of Relative viability of cells (%)” value (prostatic - PC-3; PC-3, 100 µM) was 36.8% and the IC50 (prostatic - PC-3) was 43 ± 2.5 µM.
